Source: US12116358B2, “Substituted indoles and methods of use thereof” (EPIZYME, INC., priority 2018, dated 2024)
Read-outs that look alike come from different tables or passages of the source.

Legend:
H3K36me3 in A549 cells = assay: In-Cell Western (ICW) assay of SETD2 inhibitors (A549 assay); assay type: cell-based, human; settings: A549 cells, read-out: SETD2 A549
Method in brief: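 A549 cells seeded at 4,000/well onto compound and incubated 3 days at 37° C. Methanol-fixed cells stained overnight at 4° C with anti-H3K36me3 (1:1000), then IRDye 800CW secondary with DRAQ5 DNA counterstain. Plates read by Licor imaging at 700 and 800 channels.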

SETD2(1434-1711) = target: T1, SETD2(1434-1711) (Homo sapiens, UniProt Q9BYW2); assay: SETD2 (1434-1711) assay; assay type: biochemical; settings: read-out: SETD2 (1434-1711)
T1 construct: SETD2 (1434-1711) Assay; catalogue N/A
T1 sequence (Q9BYW2 1434-1711): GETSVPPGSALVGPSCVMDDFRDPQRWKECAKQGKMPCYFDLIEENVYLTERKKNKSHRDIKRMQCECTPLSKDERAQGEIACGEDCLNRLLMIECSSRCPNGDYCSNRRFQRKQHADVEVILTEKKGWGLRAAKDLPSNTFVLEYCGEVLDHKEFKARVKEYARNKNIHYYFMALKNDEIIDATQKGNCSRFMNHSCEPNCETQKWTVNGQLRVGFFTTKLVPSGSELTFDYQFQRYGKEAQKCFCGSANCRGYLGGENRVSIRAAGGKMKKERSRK

| SMILES | IC50 (H3K36me3 in A549 cells; Homo sapiens) [µM] | IC50 (SETD2(1434-1711)) [µM] | IC50 (H3K36me3 in A549 cells) [µM] |
| --- | --- | --- | --- |
| CN[C@H]1CCN([C@H]2CCC[C@@H](NC(=O)c3cc4c(F)ccc(C)c4[nH]3)C2)C1 [compound 1087] | 0.5 | 0.01 | – |
| CN[C@H]1CCN([C@@H]2CCC[C@@H](NC(=O)c3cc4c(F)ccc(C)c4[nH]3)C2)C1 [compound 1088] | > 2 | 2.2 | – |
| Cc1ccc(F)c2cc(C(=O)N[C@@H]3CCC[C@H](N4CC[C@H](N(C)C)C4=O)C3)[nH]c12 [compound 1090] | 1.1 | 0.5 | – |
| CC(=O)N1CCN([C@@H]2CCC[C@@H](NC(=O)c3cc4c(F)ccc(C)c4[nH]3)C2)[C@H](C)C1 [compound 1091] | > 2 | 5.8 | – |
| CC(=O)N1CCN([C@H]2CCC[C@@H](NC(=O)c3cc4c(F)ccc(C)c4[nH]3)C2)[C@H](C)C1 [compound 1092] | 0.8 | 0.8 | – |
| CC[C@@H]1CN([C@@H]2CCC[C@@H](NC(=O)c3cc4c(F)ccc(C)c4[nH]3)C2)CCN1C(C)=O [compound 1095] | > 2 | 0.6 | – |
| CC(=O)N1[C@H](C)CN([C@@H]2CCC[C@@H](NC(=O)c3cc4c(F)ccc(C)c4[nH]3)C2)C[C@@H]1C [compound 1096] | > 2 | 2.4 | – |
| CC(=O)N1CCN([C@H]2CCC[C@@H](NC(=O)c3cc4c(F)ccc(C)c4[nH]3)C2)C[C@H]1CO [compound 1098] | 0.3 | 0.03 | – |
| CC(=O)N1CCN([C@H]2CCC[C@@H](NC(=O)c3cc4c(F)ccc(C)c4[nH]3)C2)C[C@@H]1CO [compound 1099] | 0.1 | 0.01 | – |
| CC(=O)N1CCN([C@@H]2CCC[C@@H](NC(=O)c3cc4c(F)ccc(C)c4[nH]3)C2)CC12CC2 [compound 1100] | > 2 | 0.9 | – |
| Cc1ccc(F)c2cc(C(=O)NC3CCCC(N4CCN5C(=O)CN(C)C(=O)C5C4)C3)[nH]c12 (stereo not drawn) [compound 1102] | – | 3.9 | > 2 |
| Cc1ccc(F)c2cc(C(=O)NC3CCCC(N4CCN5C(=O)CN(C)C(=O)C5C4)C3)[nH]c12 (stereo not drawn) [compound 1103] | – | 0.1 | 0.1 |
| Cc1ccc(F)c2cc(C(=O)NC3CCCC(N4CCN5C(=O)CN(C)C(=O)C5C4)C3)[nH]c12 (stereo not drawn) [compound 1104] | – | 0.04 | 0.2 |
| CC(=O)N1CCN([C@H]2C[C@H](NC(=O)c3cc4c(F)ccc(C)c4[nH]3)CN(C)C2)CC1 [compound 1107] | > 2 | 5.3 | – |
| CC(=O)N1CCN([C@@H]2C[C@@H](NC(=O)c3cc4c(F)ccc(C)c4[nH]3)CN(C)C2)CC1 [compound 1108] | > 2 | > 10 | – |
| CC(=O)N1CCN(C2CC(NC(=O)c3cc4c(F)ccc(C)c4[nH]3)CN(C)C2)CC1 (stereo not drawn) [compound 1109] | – | > 10 | > 2 |
| Cc1ccc(F)c2cc(C(=O)NC3CCCC(N4CCN5C(=O)OCC5C4)C3)[nH]c12 (stereo not drawn) [compound 1111] | – | 0.02 | 0.07 |
| Cc1ccc(F)c2cc(C(=O)N[C@@H]3CCC[C@H](N4CCN(C(=O)C(C)C)C(C(F)(F)F)C4)C3)[nH]c12 (stereo partly drawn) [compound 1112] | 0.02 | 0.02 | – |
| CCC(=O)N1CCN([C@H]2CCC[C@@H](NC(=O)c3cc4c(F)ccc(C)c4[nH]3)C2)CC1C(F)(F)F (stereo partly drawn) [compound 1113] | 0.01 | 0.01 | – |
| CN/C(=N\C#N)N1CCN([C@H]2CCC[C@@H](NC(=O)c3cc4c(F)ccc(C)c4[nH]3)C2)CC1 [compound 1114] | 1.6 | 0.04 | – |
| CN/C(=C\[N+](=O)[O-])N1CCN([C@H]2CCC[C@@H](NC(=O)c3cc4c(F)ccc(C)c4[nH]3)C2)CC1 [compound 1115] | 0.2 | 0.03 | – |
| C/C(=N\C#N)N1CCN([C@H]2CCC[C@@H](NC(=O)c3cc4c(F)ccc(C)c4[nH]3)C2)CC1 [compound 1116] | 0.05 | 0.02 | – |
| Cc1ccc(F)c2cc(C(=O)NC3CCCC(N4CCN(C(=O)CO)C(C(F)(F)F)C4)C3)[nH]c12 (stereo not drawn) [compound 1117] | – | 0.03 | 0.01 |
| CCN(C(=O)CO)C1CCN(C2CCCC(NC(=O)c3cc4c(F)ccc(C)c4[nH]3)C2)C1 (stereo not drawn) [compound 1120] | – | 5.9 | > 2 |
| CCN(C1CCN(C2CCCC(NC(=O)c3cc4c(F)ccc(C)c4[nH]3)C2)C1)S(C)(=O)=O (stereo not drawn) [compound 1122] | – | 1.9 | > 2 |
| CC(=O)N1C(C)CN(C2CCCC(NC(=O)c3cc4c(F)ccc(C)c4[nH]3)C2)CC1C (stereo not drawn) [compound 1123] | – | 0.5 | 1.4 |
| CC(=O)N1CCC(C2CCCC(NC(=O)c3cc4c(F)ccc(C)c4[nH]3)C2)CC1 (stereo not drawn) [compound 1124] | – | 0.2 | 0.8 |
